{
  "source": "patent US20260241012A1",
  "about": "“1,8-NAPHTHYRIDIN-2-ONE HETEROBIFUNCTIONAL BCL6 DEGRADERS” (Treeline Biosciences, Inc., priority 2022, published 2026)",
  "target": "T1, N-terminal HiBiT tagged BCL6 (Homo sapiens, UniProt P41182)",
  "T1 construct": "expressed in transfected cells; host or cells: HT1080 (ATCC CCL-121), stably transduced with lentivirus pLV-UBC-N-HiBiT-BCL6-PGK-puro",
  "experiment": "HiBiT based degradation assay",
  "assay_type": "cell-based",
  "conditions": "HT1080 cells expressing N-terminal HiBiT tagged BCL6, 5 hours of incubation; for Ymin (5 hr): BCL6 degradation normalized with DMSO control; for DC50: four-parameter logistic model, read-out: EC50 (5 hr)",
  "how_it_was_run": "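Degradation measured by luminescence from the Nano-Glo HiBiT lytic reagent (15 min, room temperature), normalized to DMSO controls and fitted to a four-parameter curve.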",
  "data": [
    {"compound": "CNC(=O)COc1cc2cc(Nc3nc(N4CC[C@@H](CNc5ccc6c(C7CCC(=O)NC7=O)nn(C)c6c5)C4)ncc3Cl)cnc2n(C)c1=O", "note": "(stereo partly drawn) [Compound 123b, 2-((6-((5-chloro-2-((3S)-3-(((3-(2,6-dioxopiperidin-3-yl)-1-methyl-1H-indazol-6-yl)amino)methyl)pyrrolidin-1-yl)pyrimidin-4-yl)amino)-1-methyl-2-oxo-1,2-dihydro-1,8-naphthyridin-3-yl)oxy)-N-methylacetamide]", "values": [
      {"measurement": "Ymin (5 hr)", "result": "++++ (Ymin < 30%)"},
      {"measurement": "DC50", "result": "< 10", "unit": "nM"}
    ]},
    {"compound": "CNC(=O)COc1cc2cc(Nc3nc(N4CCC(CN5CCN(c6cccc7c(C8CCC(=O)NC8=O)nn(C)c67)CC5)CC4)ncc3Cl)cnc2n(C)c1=O", "note": "(stereo not shown) [Compound 132, 2-((6-((5-chloro-2-(4-((4-(3-(2,6-dioxopiperidin-3-yl)-1-methyl-1H-indazol-7-yl)piperazin-1-yl)methyl)piperidin-1-yl)pyrimidin-4-yl)amino)-1-methyl-2-oxo-1,2-dihydro-1,8-naphthyridin-3-yl)oxy)-N-methylacetamide]", "values": [
      {"measurement": "Ymin (5 hr)", "result": "++++ (Ymin < 30%)"},
      {"measurement": "DC50", "result": "< 10", "unit": "nM"}
    ]},
    {"compound": "CNC(=O)COc1cc2cc(Nc3nc(N4CCC(CN5CCN(c6ccc7c(C8CCC(=O)NC8=O)nn(C)c7c6)CC5)CC4)ncc3Cl)cnc2n(C)c1=O", "note": "(stereo not shown) [Compound 133, 2-((6-((5-chloro-2-(4-((4-(3-(2,6-dioxopiperidin-3-yl)-1-methyl-1H-indazol-6-yl)piperazin-1-yl)methyl)piperidin-1-yl)pyrimidin-4-yl)amino)-1-methyl-2-oxo-1,2-dihydro-1,8-naphthyridin-3-yl)oxy)-N-methylacetamide]", "values": [
      {"measurement": "Ymin (5 hr)", "result": "++++ (Ymin < 30%)"},
      {"measurement": "DC50", "result": "< 10", "unit": "nM"}
    ]},
    {"compound": "CNC(=O)COc1cc2cc(Nc3nc(N4CCN(CC5CCN(c6ccc7c(C8CCC(=O)NC8=O)nn(C)c7c6)CC5)CC4)ncc3F)cnc2n(C)c1=O", "note": "(stereo not shown) [Compound 134, 2-((6-((2-(4-((1-(3-(2,6-dioxopiperidin-3-yl)-1-methyl-1H-indazol-6-yl)piperidin-4-yl)methyl)piperazin-1-yl)-5-fluoropyrimidin-4-yl)amino)-1-methyl-2-oxo-1,2-dihydro-1,8-naphthyridin-3-yl)oxy)-N-methylacetamide]", "values": [
      {"measurement": "Ymin (5 hr)", "result": "+++ (30% ≤ Ymin < 50%)"},
      {"measurement": "DC50", "result": "< 10", "unit": "nM"}
    ]},
    {"compound": "CNC(=O)COc1cc2cc(Nc3nc(N4CCN(CC5CCN(c6cccc7c(C8CCC(=O)NC8=O)nn(C)c67)CC5)CC4)ncc3F)cnc2n(C)c1=O", "note": "(stereo not shown) [Compound 135, 2-((6-((2-(4-((1-(3-(2,6-dioxopiperidin-3-yl)-1-methyl-1H-indazol-7-yl)piperidin-4-yl)methyl)piperazin-1-yl)-5-fluoropyrimidin-4-yl)amino)-1-methyl-2-oxo-1,2-dihydro-1,8-naphthyridin-3-yl)oxy)-N-methylacetamide]", "values": [
      {"measurement": "Ymin (5 hr)", "result": "++++ (Ymin < 30%)"},
      {"measurement": "DC50", "result": "< 10", "unit": "nM"}
    ]},
    {"compound": "CNC(=O)COc1cc2cc(Nc3nc(N4C[C@@H]5[C@@H](CN6CCN(c7cccc8c(C9CCC(=O)NC9=O)nn(C)c78)CC6)[C@@H]5C4)ncc3Cl)cnc2n(C)c1=O", "note": "(stereo partly drawn) [Compound 136a, 2-((6-((5-chloro-2-((1R,5S,6s)-6-((4-(3-(2,6-dioxopiperidin-3-yl)-1-methyl-1H-indazol-7-yl)piperazin-1-yl)methyl)-3-azabicyclo[3.1.0]hexan-3-yl)pyrimidin-4-yl)amino)-1-methyl-2-oxo-1,2-dihydro-1,8-naphthyridin-3-yl)oxy)-N-methylacetamide]", "values": [
      {"measurement": "Ymin (5 hr)", "result": "++++ (Ymin < 30%)"},
      {"measurement": "DC50", "result": "< 10", "unit": "nM"}
    ]},
    {"compound": "CNC(=O)COc1cc2cc(Nc3nc(N4CC5(CCC(Nc6cccc7c(C8CCC(=O)NC8=O)nn(C)c67)CC5)C4)ncc3Cl)cnc2n(C)c1=O", "note": "(stereo not shown) [Compound 137, 2-((6-((5-chloro-2-(7-((3-(2,6-dioxopiperidin-3-yl)-1-methyl-1H-indazol-7-yl)amino)-2-azaspiro[3.5]nonan-2-yl)pyrimidin-4-yl)amino)-1-methyl-2-oxo-1,2-dihydro-1,8-naphthyridin-3-yl)oxy)-N-methylacetamide]", "values": [
      {"measurement": "Ymin (5 hr)", "result": "++++ (Ymin < 30%)"},
      {"measurement": "DC50", "result": "< 10", "unit": "nM"}
    ]},
    {"compound": "CNC(=O)COc1cc2cc(Nc3nc(N4CC5(CCC(Nc6ccc7c(C8CCC(=O)NC8=O)nn(C)c7c6)CC5)C4)ncc3Cl)cnc2n(C)c1=O", "note": "(stereo not shown) [Compound 138, 2-((6-((5-chloro-2-(7-((3-(2,6-dioxopiperidin-3-yl)-1-methyl-1H-indazol-6-yl)amino)-2-azaspiro[3.5]nonan-2-yl)pyrimidin-4-yl)amino)-1-methyl-2-oxo-1,2-dihydro-1,8-naphthyridin-3-yl)oxy)-N-methylacetamide]", "values": [
      {"measurement": "Ymin (5 hr)", "result": "++++ (Ymin < 30%)"},
      {"measurement": "DC50", "result": "< 10", "unit": "nM"}
    ]},
    {"compound": "CNC(=O)COc1cc2cc(Nc3nc(N4CCC(CC5CCN(c6cccc7c(C8CCC(=O)NC8=O)nn(C)c67)CC5)CC4)ncc3Cl)cnc2n(C)c1=O", "note": "(stereo not shown) [Compound 139, 2-((6-((5-chloro-2-(4-((1-(3-(2,6-dioxopiperidin-3-yl)-1-methyl-1H-indazol-7-yl)piperidin-4-yl)methyl)piperidin-1-yl)pyrimidin-4-yl)amino)-1-methyl-2-oxo-1,2-dihydro-1,8-naphthyridin-3-yl)oxy)-N-methylacetamide]", "values": [
      {"measurement": "Ymin (5 hr)", "result": "+++ (30% ≤ Ymin < 50%)"},
      {"measurement": "DC50", "result": "100 to 1000", "unit": "nM"}
    ]},
    {"compound": "CNC(=O)COc1cc2cc(Nc3nc(N4CCC(CC5CCN(c6ccc7c(C8CCC(=O)NC8=O)nn(C)c7c6)CC5)CC4)ncc3Cl)cnc2n(C)c1=O", "note": "(stereo not shown) [Compound 140, 2-((6-((5-chloro-2-(4-((1-(3-(2,6-dioxopiperidin-3-yl)-1-methyl-1H-indazol-6-yl)piperidin-4-yl)methyl)piperidin-1-yl)pyrimidin-4-yl)amino)-1-methyl-2-oxo-1,2-dihydro-1,8-naphthyridin-3-yl)oxy)-N-methylacetamide]", "values": [
      {"measurement": "Ymin (5 hr)", "result": "+++ (30% ≤ Ymin < 50%)"},
      {"measurement": "DC50", "result": "< 10", "unit": "nM"}
    ]},
    {"compound": "CNC(=O)COc1cc2cc(Nc3nc(N4CCN(CC5CCN(c6cccc7c(C8CCC(=O)NC8=O)nn(C)c67)CC5)[C@@H](C(F)(F)F)C4)ncc3Cl)cnc2n(C)c1=O", "note": "(stereo partly drawn) [Compound 141a, 2-((6-((5-chloro-2-((3R)-4-((1-(3-(2,6-dioxopiperidin-3-yl)-1-methyl-1H-indazol-7-yl)piperidin-4-yl)methyl)-3-(trifluoromethyl)piperazin-1-yl)pyrimidin-4-yl)amino)-1-methyl-2-oxo-1,2-dihydro-1,8-naphthyridin-3-yl)oxy)-N-methylacetamide]", "values": [
      {"measurement": "Ymin (5 hr)", "result": "+++ (30% ≤ Ymin < 50%)"},
      {"measurement": "DC50", "result": "10 to 100", "unit": "nM"}
    ]},
    {"compound": "CNC(=O)COc1cc2cc(Nc3nc(N4CC5(CCC(Oc6cccc7c(C8CCC(=O)NC8=O)nn(C)c67)CC5)C4)ncc3Cl)cnc2n(C)c1=O", "note": "(stereo not shown) [Compound 142, 2-((6-((5-chloro-2-(7-((3-(2,6-dioxopiperidin-3-yl)-1-methyl-1H-indazol-7-yl)oxy)-2-azaspiro[3.5]nonan-2-yl)pyrimidin-4-yl)amino)-1-methyl-2-oxo-1,2-dihydro-1,8-naphthyridin-3-yl)oxy)-N-methylacetamide]", "values": [
      {"measurement": "Ymin (5 hr)", "result": "+++ (30% ≤ Ymin < 50%)"},
      {"measurement": "DC50", "result": "< 10", "unit": "nM"}
    ]},
    {"compound": "CNC(=O)COc1cc2cc(Nc3nc(N4CCC(CN5C6CCC5CC(c5cccc7c(C8CCC(=O)NC8=O)nn(C)c57)C6)CC4)ncc3Cl)cnc2n(C)c1=O", "note": "[Compound 143, 2-((6-((5-chloro-2-(4-(((1R,3s,5S)-3-(3-(2,6-dioxopiperidin-3-yl)-1-methyl-1H-indazol-7-yl)-8-azabicyclo[3.2.1]octan-8-yl)methyl)piperidin-1-yl)pyrimidin-4-yl)amino)-1-methyl-2-oxo-1,2-dihydro-1,8-naphthyridin-3-yl)oxy)-N-methylacetamide]", "values": [
      {"measurement": "Ymin (5 hr)", "result": "++++ (Ymin < 30%)"},
      {"measurement": "DC50", "result": "< 10", "unit": "nM"}
    ]},
    {"compound": "CNC(=O)COc1cc2cc(Nc3nc(N4CC5(CCC(Oc6ccc7c(C8CCC(=O)NC8=O)nn(C)c7c6)CC5)C4)ncc3Cl)cnc2n(C)c1=O", "note": "(stereo not shown) [Compound 144, 2-((6-((5-chloro-2-(7-((3-(2,6-dioxopiperidin-3-yl)-1-methyl-1H-indazol-6-yl)oxy)-2-azaspiro[3.5]nonan-2-yl)pyrimidin-4-yl)amino)-1-methyl-2-oxo-1,2-dihydro-1,8-naphthyridin-3-yl)oxy)-N-methylacetamide]", "values": [
      {"measurement": "Ymin (5 hr)", "result": "++++ (Ymin < 30%)"},
      {"measurement": "DC50", "result": "< 10", "unit": "nM"}
    ]},
    {"compound": "CCn1c(=O)c(OCC(=O)NC)cc2cc(Nc3nc(N4CCN(CC5CCN(c6cccc7c(C8CCC(=O)NC8=O)nn(C)c67)CC5)CC4)ncc3Cl)cnc21", "note": "(stereo not shown) [Compound 145, 2-((6-((5-chloro-2-(4-((1-(3-(2,6-dioxopiperidin-3-yl)-1-methyl-1H-indazol-7-yl)piperidin-4-yl)methyl)piperazin-1-yl)pyrimidin-4-yl)amino)-1-ethyl-2-oxo-1,2-dihydro-1,8-naphthyridin-3-yl)oxy)-N-methylacetamide]", "values": [
      {"measurement": "Ymin (5 hr)", "result": "++++ (Ymin < 30%)"},
      {"measurement": "DC50", "result": "< 10", "unit": "nM"}
    ]},
    {"compound": "CNC(=O)COc1cc2cc(Nc3nc(N4CCN(CC5CCN(c6cccc7c(C8CCC(=O)NC8=O)nn(C)c67)CC5)[C@H](CO)C4)ncc3Cl)cnc2n(C(C)C)c1=O", "note": "(stereo partly drawn) [Compound 146a, 2-((6-((5-chloro-2-((3S)-4-((1-(3-(2,6-dioxopiperidin-3-yl)-1-methyl-1H-indazol-7-yl)piperidin-4-yl)methyl)-3-(hydroxymethyl)piperazin-1-yl)pyrimidin-4-yl)amino)-1-isopropyl-2-oxo-1,2-dihydro-1,8-naphthyridin-3-yl)oxy)-N-methylacetamide]", "values": [
      {"measurement": "Ymin (5 hr)", "result": "++++ (Ymin < 30%)"},
      {"measurement": "DC50", "result": "10 to 100", "unit": "nM"}
    ]},
    {"compound": "CNC(=O)COc1cc2cc(Nc3nc(N4CCN(CC5CCN(c6cccc7c(C8CCC(=O)NC8=O)nn(C)c67)CC5)[C@@H](CO)C4)ncc3Cl)cnc2n(C(C)C)c1=O", "note": "(stereo partly drawn) [Compound 146b, 2-((6-((5-chloro-2-((3R)-4-((1-(3-(2,6-dioxopiperidin-3-yl)-1-methyl-1H-indazol-7-yl)piperidin-4-yl)methyl)-3-(hydroxymethyl)piperazin-1-yl)pyrimidin-4-yl)amino)-1-isopropyl-2-oxo-1,2-dihydro-1,8-naphthyridin-3-yl)oxy)-N-methylacetamide]", "values": [
      {"measurement": "Ymin (5 hr)", "result": "++++ (Ymin < 30%)"},
      {"measurement": "DC50", "result": "10 to 100", "unit": "nM"}
    ]}
  ]
}
